In publication PMC4332533 (Neuropharmacology, 2014):

Columns and labels:
α3Y168Cβ2D190C receptor = α3Y168Cβ2D190C receptor (Rattus norvegicus, UniProt P04757+P12390, D216C/Y195C); experiment: Macroscopic evoked currents, two-electrode voltage-clamp, Xenopus laevis oocytes; type: cell-based; conditions: ACh alone; Hill fit; naive oocytes
α3Y168Cβ2 receptor = α3Y168Cβ2 receptor (Rattus norvegicus, UniProt P04757+P12390, Y195C); experiment: as above; type: cell-based; conditions: ACh alone; Hill fit
Chain of α3Y168Cβ2 receptor (P04757 26-499 Y195C): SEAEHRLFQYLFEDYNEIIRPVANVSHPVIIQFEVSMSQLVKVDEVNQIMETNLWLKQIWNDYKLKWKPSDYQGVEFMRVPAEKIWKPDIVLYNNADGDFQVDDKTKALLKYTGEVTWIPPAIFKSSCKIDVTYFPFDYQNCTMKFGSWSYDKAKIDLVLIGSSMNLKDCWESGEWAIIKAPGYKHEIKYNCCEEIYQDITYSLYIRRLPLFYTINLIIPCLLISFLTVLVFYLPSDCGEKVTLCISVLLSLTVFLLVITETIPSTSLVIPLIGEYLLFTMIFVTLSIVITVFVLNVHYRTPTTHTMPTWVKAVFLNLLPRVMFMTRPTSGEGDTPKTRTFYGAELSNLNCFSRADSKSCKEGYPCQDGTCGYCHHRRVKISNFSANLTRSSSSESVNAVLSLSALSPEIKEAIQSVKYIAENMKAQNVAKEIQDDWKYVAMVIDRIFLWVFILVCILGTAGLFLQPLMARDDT
Chain of α3Y168Cβ2 receptor (P12390 25-500): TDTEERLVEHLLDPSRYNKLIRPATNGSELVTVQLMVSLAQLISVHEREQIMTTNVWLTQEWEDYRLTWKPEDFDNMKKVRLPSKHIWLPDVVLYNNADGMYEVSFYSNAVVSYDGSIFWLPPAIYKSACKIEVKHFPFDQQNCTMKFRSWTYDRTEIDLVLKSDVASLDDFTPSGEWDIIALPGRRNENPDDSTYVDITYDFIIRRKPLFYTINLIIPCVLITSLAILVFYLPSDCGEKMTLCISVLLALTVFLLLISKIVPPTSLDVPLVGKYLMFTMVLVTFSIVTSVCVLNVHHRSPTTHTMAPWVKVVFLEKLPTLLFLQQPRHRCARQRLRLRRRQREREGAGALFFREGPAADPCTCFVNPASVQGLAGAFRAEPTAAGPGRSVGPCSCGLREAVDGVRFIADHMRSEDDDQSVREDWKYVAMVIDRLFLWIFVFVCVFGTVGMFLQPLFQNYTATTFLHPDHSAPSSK

α3β2D190C receptor = α3β2D190C receptor (Rattus norvegicus, UniProt P04757+P12390, D216C); experiment: as above; type: cell-based; conditions: ACh alone; Hill fit
Chain of α3β2D190C receptor (P04757 26-499): as the sequence (P04757 26-499 Y195C) above, with C170Y counted along it
Chain of α3β2D190C receptor (P12390 25-500 D216C): as the sequence (P12390 25-500) above, with D192C counted along it

α3Y168Fβ2 receptor = α3Y168Fβ2 receptor (Rattus norvegicus, UniProt P04757+P12390, Y195F); experiment: as above; type: cell-based; conditions: ACh alone; Hill fit
Chain of α3Y168Fβ2 receptor (P04757 26-499 Y195F): as the sequence (P04757 26-499 Y195C) above, with C170F counted along it
Chain of α3Y168Fβ2 receptor (P12390 25-500): as the sequence (P12390 25-500) above

α3β2D190Q receptor = α3β2D190Q receptor (Rattus norvegicus, UniProt P04757+P12390, D216Q); experiment: as above; type: cell-based; conditions: ACh alone; Hill fit
Chain of α3β2D190Q receptor (P04757 26-499): as the sequence (P04757 26-499 Y195C) above, with C170Y counted along it
Chain of α3β2D190Q receptor (P12390 25-500 D216Q): as the sequence (P12390 25-500) above, with D192Q counted along it

α3Y168Fβ2D190Q receptor = α3Y168Fβ2D190Q receptor (Rattus norvegicus, UniProt P04757+P12390, D216Q/Y195F); experiment: as above; type: cell-based; conditions: ACh alone
Chain of α3Y168Fβ2D190Q receptor (P04757 26-499 Y195F): as the sequence (P04757 26-499 Y195C) above, with C170F counted along it
Chain of α3Y168Fβ2D190Q receptor (P12390 25-500 D216Q): as the sequence (P12390 25-500) above, with D192Q counted along it

α3S125Yβ2W149A receptor = α3S125Yβ2W149A receptor (Rattus norvegicus, UniProt P04757+P12390, S152Y/W175A); experiment: as above; type: cell-based; conditions: ACh alone
Chain of α3S125Yβ2W149A receptor (P04757 26-499 S152Y): as the sequence (P04757 26-499 Y195C) above, with S127Y, C170Y counted along it
Chain of α3S125Yβ2W149A receptor (P12390 25-500 W175A): as the sequence (P12390 25-500) above, with W151A counted along it

α3S125Cβ2 receptor = α3S125Cβ2 receptor (Rattus norvegicus, UniProt P04757+P12390, S152C); experiment: as above; type: cell-based; conditions: ACh alone; Hill fit
Chain of α3S125Cβ2 receptor (P04757 26-499 S152C): as the sequence (P04757 26-499 Y195C) above, with S127C, C170Y counted along it
Chain of α3S125Cβ2 receptor (P12390 25-500, stated change not applied): as the sequence (P12390 25-500) above

α3β2Q39C receptor = α3β2Q39C receptor (Rattus norvegicus, UniProt P04757+P12390, Q65C); experiment: as above; type: cell-based
Chain of α3β2Q39C receptor (P04757 26-499): as the sequence (P04757 26-499 Y195C) above, with C170Y counted along it
Chain of α3β2Q39C receptor (P12390 25-500 Q65C): as the sequence (P12390 25-500) above, with Q41C counted along it

α3Q37Cβ2 receptor = α3Q37Cβ2 receptor (Rattus norvegicus, UniProt P04757+P12390, Q64C); experiment: as above; type: cell-based; conditions: ACh alone; Hill fit
Chain of α3Q37Cβ2 receptor (P04757 26-499 Q64C): as the sequence (P04757 26-499 Y195C) above, with Q39C, C170Y counted along it
Chain of α3Q37Cβ2 receptor (P12390 25-500): as the sequence (P12390 25-500) above

α3β2A127C receptor = α3β2A127C receptor (Rattus norvegicus, UniProt P04757+P12390, A153C); experiment: as above; type: cell-based; conditions: ACh alone; Hill fit
Chain of α3β2A127C receptor (P04757 26-499): as the sequence (P04757 26-499 Y195C) above, with C170Y counted along it
Chain of α3β2A127C receptor (P12390 25-500 A153C): as the sequence (P12390 25-500) above, with A129C counted along it

α3Q37Cβ2A127C receptor = α3Q37Cβ2A127C receptor (Rattus norvegicus, UniProt P04757+P12390, A153C/Q64C); experiment: as above; type: cell-based; conditions: ACh alone
Chain of α3Q37Cβ2A127C receptor (P04757 26-499 Q64C): as the sequence (P04757 26-499 Y195C) above, with Q39C, C170Y counted along it
Chain of α3Q37Cβ2A127C receptor (P12390 25-500 A153C): as the sequence (P12390 25-500) above, with A129C counted along it

α3β2A127Y receptor = α3β2A127Y receptor (Rattus norvegicus, UniProt P04757+P12390, A153Y); experiment: as above; type: cell-based; conditions: ACh alone; Hill fit
Chain of α3β2A127Y receptor (P04757 26-499): as the sequence (P04757 26-499 Y195C) above, with C170Y counted along it
Chain of α3β2A127Y receptor (P12390 25-500 A153Y): as the sequence (P12390 25-500) above, with A129Y counted along it

α3S125Yβ2A127Y receptor = α3S125Yβ2A127Y receptor (Rattus norvegicus, UniProt P04757+P12390, A153Y/S152Y); experiment: as above; type: cell-based; conditions: ACh alone
Chain of α3S125Yβ2A127Y receptor (P04757 26-499 S152Y): as the sequence (P04757 26-499 Y195C) above, with S127Y, C170Y counted along it
Chain of α3S125Yβ2A127Y receptor (P12390 25-500 A153Y): as the sequence (P12390 25-500) above, with A129Y counted along it

α3E173Cβ2 receptor = α3E173Cβ2 receptor (Rattus norvegicus, UniProt P04757+P12390, E200C); experiment: as above; type: cell-based; conditions: ACh alone; Hill fit
Chain of α3E173Cβ2 receptor (P04757 26-499 E200C): as the sequence (P04757 26-499 Y195C) above, with C170Y, E175C counted along it
Chain of α3E173Cβ2 receptor (P12390 25-500): as the sequence (P12390 25-500) above

α3β2R46C receptor = α3β2R46C receptor (Rattus norvegicus, UniProt P04757+P12390, R72C); experiment: as above; type: cell-based; conditions: ACh alone; Hill fit
Chain of α3β2R46C receptor (P04757 26-499): as the sequence (P04757 26-499 Y195C) above, with C170Y counted along it
Chain of α3β2R46C receptor (P12390 25-500 R72C): as the sequence (P12390 25-500) above, with R48C counted along it

α3E173Cβ2R46C receptor = α3E173Cβ2R46C receptor (Rattus norvegicus, UniProt P04757+P12390, E200C/R46C); experiment: as above; type: cell-based
Chain of α3E173Cβ2R46C receptor (P04757 26-499 E200C): as the sequence (P04757 26-499 Y195C) above, with C170Y, E175C counted along it
Chain of α3E173Cβ2R46C receptor (P12390 25-500 R46C): as the sequence (P12390 25-500) above, with R22C counted along it

α3E173Aβ2 receptor = α3E173Aβ2 receptor (Rattus norvegicus, UniProt P04757+P12390, E200A); experiment: as above; type: cell-based; conditions: ACh alone; Hill fit
Chain of α3E173Aβ2 receptor (P04757 26-499 E200A): as the sequence (P04757 26-499 Y195C) above, with C170Y, E175A counted along it
Chain of α3E173Aβ2 receptor (P12390 25-500): as the sequence (P12390 25-500) above

α3β2R46V receptor = α3β2R46V receptor (Rattus norvegicus, UniProt P04757+P12390, R72V); experiment: as above; type: cell-based; conditions: ACh alone; Hill fit
Chain of α3β2R46V receptor (P04757 26-499): as the sequence (P04757 26-499 Y195C) above, with C170Y counted along it
Chain of α3β2R46V receptor (P12390 25-500 R72V): as the sequence (P12390 25-500) above, with R48V counted along it

α3E173Aβ2R46V receptor = α3E173Aβ2R46V receptor (Rattus norvegicus, UniProt P04757+P12390, E200A/R46V); experiment: as above; type: cell-based
Chain of α3E173Aβ2R46V receptor (P04757 26-499 E200A): as the sequence (P04757 26-499 Y195C) above, with C170Y, E175A counted along it
Chain of α3E173Aβ2R46V receptor (P12390 25-500 R46V): as the sequence (P12390 25-500) above, with R22V counted along it

α3β2W149A receptor = conditions: read-out: EC50 (ACh Activation); ACh alone; Hill fit; cited from earlier work
α3S125Cβ2Q39C receptor = α3S125Cβ2Q39C receptor (Rattus norvegicus, UniProt P04757+P12390, Q65C/S152C); experiment: Macroscopic evoked currents, two-electrode voltage-clamp, Xenopus laevis oocytes
Chain of α3S125Cβ2Q39C receptor (P04757 26-499 S152C): as the sequence (P04757 26-499 Y195C) above, with S127C, C170Y counted along it
Chain of α3S125Cβ2Q39C receptor (P12390 25-500 Q65C): as the sequence (P12390 25-500) above, with Q41C counted along it

[1] = thermodynamic cycle Ω from EC50s, ACh alone, location M4

Chain of α3Y168Cβ2D190C receptor (P04757 26-499 Y195C): as the sequence (P04757 26-499 Y195C) above
Chain of α3Y168Cβ2D190C receptor (P12390 25-500 D216C): as the sequence (P12390 25-500) above, with D192C counted along it

## CC(=O)OCC[N+](C)(C)C [ACh, acetylcholine]
α3Y168Cβ2D190C receptor
  nH (ACh Activation): 0.68 ± 0.08 [10]
α3Y168Cβ2 receptor
  nH (ACh Activation): 0.70 ± 0.11 [11]
α3β2D190C receptor
  nH (ACh Activation): 1.05 ± 0.14 [9]
α3Y168Fβ2 receptor
  nH (ACh Activation): 0.61 ± 0.04 [12]
α3β2D190Q receptor
  nH (ACh Activation): 1.00 ± 0.15 [8]
α3Y168Fβ2D190Q receptor; Hill fit
  nH (ACh Activation): 0.83 ± 0.09 [11]
α3Y168Fβ2D190Q receptor; thermodynamic cycle Ω from EC50s, location M1
  Ω(ACh): 18
α3S125Yβ2W149A receptor; Hill fit
  nH (ACh Activation): 0.61 ± 0.10 [6]
α3S125Yβ2W149A receptor; thermodynamic cycle Ω from EC50s, location A2
  Ω(ACh): 0.98
α3S125Cβ2 receptor
  nH (ACh Activation): 0.64 ± 0.13 [5–7]
α3β2Q39C receptor; ACh alone, Hill fit
  nH (ACh Activation): 0.78 ± 0.12 [4]
α3β2Q39C receptor; from Table 2
  increase in EC50 for ACh activation vs wild type: 2 fold
α3Q37Cβ2 receptor
  nH (ACh Activation): 1.67 ± 0.44 [4]
α3β2A127C receptor
  nH (ACh Activation): 2.09 ± 0.34 [4]
α3Q37Cβ2A127C receptor; Hill fit, naive oocytes
  nH (ACh Activation): 0.97 ± 0.13 [6]
α3Q37Cβ2A127C receptor; thermodynamic cycle Ω from EC50s, location M3
  Ω(ACh): 0.64
α3β2A127Y receptor
  nH (ACh Activation): 1.46 ± 0.20 [5]
α3S125Yβ2A127Y receptor; Hill fit
  nH (ACh Activation): 1.06 ± 0.19 [3]
α3S125Yβ2A127Y receptor; thermodynamic cycle Ω from EC50s, location A2/M3
  Ω(ACh): 3.2
α3E173Cβ2 receptor
  nH (ACh Activation): 1.16 ± 0.12 [7]
α3β2R46C receptor
  nH (ACh Activation): 0.88 ± 0.13 [5]
α3E173Cβ2R46C receptor; 2 mM ACh, n = 8, one successful expression attempt
  Iaverage evoked by ACh: 60 ± 10 nA
α3E173Cβ2R46C receptor; ACh alone, Hill fit
  nH (ACh Activation): 0.85 ± 0.10 [5–6]
α3E173Cβ2R46C receptor; [1]
  Ω(ACh): 2.4
α3E173Aβ2 receptor
  nH (ACh Activation): 1.77 ± 0.26 [3–6]
α3β2R46V receptor
  nH (ACh Activation): 0.92 ± 0.14 [5–7]
α3E173Aβ2R46V receptor; 800 µM ACh, n = 8
  Iaverage evoked by ACh: 990 ± 130 nA
α3E173Aβ2R46V receptor; ACh alone, Hill fit
  nH (ACh Activation): 0.82 ± 0.06 [7–8]
α3E173Aβ2R46V receptor; [1]
  Ω(ACh): 15
α3β2W149A receptor
  EC50: 40 ± 6 µM
α3S125Cβ2Q39C receptor; ACh alone, Hill fit, naive oocytes
  nH (ACh Activation): 0.66 ± 0.09 [3–7]
α3S125Cβ2Q39C receptor; from Table 2
  decrease in EC50 for ACh activation vs wild type: 60 fold
α3S125Cβ2Q39C receptor; thermodynamic cycle Ω from EC50s, ACh alone, location A2
  Ω(ACh): 0.16
